Results taken from patent US20150065567A1, “1-PHENYLALKANECARBOXYLIC ACID DERIVATIVES FOR THE TREATMENT OF ALZHEIMER'S DISEASE AND MULTIPLE SCLEROSIS” (Chiesi Farmaceutici S.p.A., priority 2013, published 2015).
pIC50: −log10 of the molar value. Read-outs that look alike come from different tables or passages of the source.

Key:
[1] = system: astrocyte-microglia co-culture (mixed glial cell culture) exposed to Aβ1-42; assay: M1/M2 marker mRNA expression (RT-qPCR) in mixed glial culture exposed to Aβ1-42; type: cell-based, C57BL/6 mice
Procedure: C57BL/6 mice are purchased from Charles River. Mixed glial cell cultures were prepared from the brains of 1-3 day newborn mice. Briefly, after carefully removing meninges and large blood vessels, the brains were pooled and then dissociated by manual dispersion with a fire-polished Pasteur pipette. The cells were allowed to attach and grow at 37° C. in DMEM supplemented with 10% fetal bovine serum (FBS) (Euroclone), 4 mM L-glutamine, 200 U/ml penicillin/streptomycin in a water saturated atmosphere containing 5% CO2 for two week.
Soluble Aβ 1-42 were dissolved in sterile water to a final concentration of 2.5 mM, divided into aliquots and frozen. For experiments, mixed glial cells were incubated with soluble (not aggregated) Aβ 1-42, added at a concentration of 10 μM, in presence of CHF5074 (solved in 0.2% DMSO) or vehicle. Incubation was carried out for different times (from 1 to 8 days) in a Neurobasal/B27 medium. At the end of these periods, neuronal cell death by necrosis was evaluated by measuring the amount of lactate dehydrogenase (LDH) released into the culture medium using the CytoTox 96-non-radioactive cytotoxicity assay (Promega).
Total RNA was purified from cultured cells using the RNeasy Mini Kit for total RNA extractions (Qiagen). RNA was reverse transcribed using the Quantitect® Reverse Transcription Kit (Qiagen) with optimized mix of oligo-dT and random primers as primer and 1 μg of total RNA from mixed primary culture or co-culture. The reverse transcription reaction were performed in a total volume of 20 μL containing 5×RT-Buffer (that included dNTPs and Mg^2+), 50 U RT (Reverse trascriptase), 20 U RNase Inhibitor in RNAse-DNase free water for 10 min at 25° C., 2 h at 37° C. and 10 min at 85° C. Individual 25 μL SYBR Green real-time PCR reactions consisted of 2 μL of cDNA, 12.5 μL of 2× iQ™ SYBR Green Supermix (Bio-Rad), and 1.5 μL of each 10 μM optimized forward and reverse primers in 7.5 μL RNase-free water.
The PCR were performed on a Bio-Rad iCycler Detection System using a 3-stage program: 3 min at 50° C., 10 min at 95° C. and 40 cycles of 30 sec at 94° C. and 45 secat 60° C. For standardization of quantification, β-actin were amplified simultaneously. Sets of primer were designed to amplify by Real-time RT-PCR (q-RT-PCR) and RT-PCR genes expressed by classically activated (M1) microglia: • TNFα (Tumor Necrosis Factor α); • IL-1β (Interleukin1β); • iNOS (inducible Nitric Oxide Sinthase); and by alternatively activated (M2) microglia: • ARG1 (Arginase 1); • MRC1 (C-type mannose receptor 1); • TREM2 (Triggering Receptor Expressed on Myeloid cells-2). Primer3plus was used as primer designing tool and then checked the oligos (synthetized by Invitrogen) to verify melting temperatures and quality of the sequences.
Data were analyzed with Student's t-test for independent data. P<0.05 was considered as significant.
The effect of CHF5074 on the inflammatory response induced by Aβ was examined. Mixed astrocyte-microglia co-cultures were exposed to Aβ with or without CHF5074 at 3 μM concentration and examined for cytokine expression after 2 or 8 days. For classical activation of microglia, the expression of iNOS, beside TNFα and IL-1β was analyzed (see FIG. 2).
The alternative microglial activation markers (M2) in mixed glial cultures exposed to Aβ with and without CHF5074 for 2 days or 8 days were also investigated (see FIG. 3).

[2] = system: Notch intracellular cleavage in human embryonic kidney 293swe cells; conditions: at 5 μM, HEK 293swe cells; cited from earlier work
[3] = rats; cited from earlier work
TNFα = conditions: healthy subjects, short-term administration; cited from earlier work
[4] = system: transgenic mouse models of AD; conditions: cited from earlier work
COX-2 = target: T1, COX-2 (Homo sapiens, UniProt P35354); conditions: concentrations up to 300 μM; cited from earlier work
T1 sequence (P35354 18-604): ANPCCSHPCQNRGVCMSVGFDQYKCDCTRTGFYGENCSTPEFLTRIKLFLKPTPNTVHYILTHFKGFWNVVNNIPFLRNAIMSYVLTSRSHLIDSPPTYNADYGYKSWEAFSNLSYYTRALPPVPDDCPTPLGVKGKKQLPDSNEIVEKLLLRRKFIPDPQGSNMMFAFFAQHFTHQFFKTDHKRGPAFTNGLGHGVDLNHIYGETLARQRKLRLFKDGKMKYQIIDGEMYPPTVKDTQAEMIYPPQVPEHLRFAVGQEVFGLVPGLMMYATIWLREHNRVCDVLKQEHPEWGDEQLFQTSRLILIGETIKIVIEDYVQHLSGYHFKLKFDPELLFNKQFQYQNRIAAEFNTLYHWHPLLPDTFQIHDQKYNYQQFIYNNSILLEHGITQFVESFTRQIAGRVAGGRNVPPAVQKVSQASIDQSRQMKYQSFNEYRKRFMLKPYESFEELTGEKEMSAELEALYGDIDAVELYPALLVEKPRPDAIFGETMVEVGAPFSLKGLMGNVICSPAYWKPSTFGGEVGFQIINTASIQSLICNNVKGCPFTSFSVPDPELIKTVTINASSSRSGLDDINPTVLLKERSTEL

NICD-responsive genes = conditions: at 100 μM; cited from earlier work
[5] = stated after the mice and rats data; cited from earlier work
[6] = system: Aβ42 secretion in human neuroglioma cells over-expressing the Swedish mutated APP (H4swe); conditions: read-out: IC50 for lowering Aβ42 secretion; cited from earlier work
[7] = dogs, cited from earlier work
COX-1 = COX-1 (Homo sapiens, UniProt P23219); conditions: concentrations up to 100 μM; cited from earlier work
[8] = guinea-pigs, cited from earlier work
[9] = mice, cited from earlier work
AD patients = conditions: cited from earlier work
dendritic spine density = conditions: mice; cited from earlier work

Chain of COX-1 (P23219 24-599): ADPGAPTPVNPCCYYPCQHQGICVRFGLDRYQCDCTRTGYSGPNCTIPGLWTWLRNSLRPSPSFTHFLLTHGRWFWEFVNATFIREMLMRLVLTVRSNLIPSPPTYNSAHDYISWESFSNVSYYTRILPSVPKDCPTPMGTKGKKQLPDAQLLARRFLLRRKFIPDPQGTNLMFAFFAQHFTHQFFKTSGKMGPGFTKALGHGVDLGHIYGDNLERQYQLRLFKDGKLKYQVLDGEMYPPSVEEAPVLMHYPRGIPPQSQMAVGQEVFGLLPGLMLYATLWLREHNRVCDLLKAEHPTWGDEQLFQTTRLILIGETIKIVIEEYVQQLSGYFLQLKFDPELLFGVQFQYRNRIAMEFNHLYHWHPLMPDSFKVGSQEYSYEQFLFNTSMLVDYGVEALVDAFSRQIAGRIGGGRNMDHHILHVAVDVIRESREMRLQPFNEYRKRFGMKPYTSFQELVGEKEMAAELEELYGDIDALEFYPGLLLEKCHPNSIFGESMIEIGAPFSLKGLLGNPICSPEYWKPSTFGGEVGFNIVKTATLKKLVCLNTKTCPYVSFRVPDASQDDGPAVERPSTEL

O=C(O)C1(c2ccc(-c3ccc(Cl)c(Cl)c3)c(F)c2)CC1 [CHF 5074, 1-(3′,4′-dichloro-2-fluorobiphenyl-4-yl)cyclopropanecarboxylic acid]
ARG1 expression ([1]; 3 μM with 10 μM Aβ1-42, 2 days): no change
IL-1β mRNA expression ([1]; 3 μM with 10 μM Aβ1-42, 2 days): significantly decreased
TNFα mRNA expression ([1]; 3 μM with 10 μM Aβ1-42, 2 days): significantly decreased
iNOS mRNA expression ([1]; 3 μM with 10 μM Aβ1-42, 2 days): significantly decreased
increase of TREM2 mRNA over the basal value ([1]; 3 μM with 10 μM Aβ1-42, 2 days): ~60%
MRC1 mRNA level ([1]; 3 μM with 10 μM Aβ1-42, 2 days, Aβ alone reduced MRC1 to about 50% of basal): near a three-fold increase
M2 mRNAs (MRC1, TREM2 and ARG1) expression ([1]; 3 μM with 10 μM Aβ1-42, 8 days): None of the tested M2 mRNAs (MRC1, TREM2 and ARG1) appeared modified
TNFα, IL1β and iNOS (M1) expression levels ([1]; 3 μM with 10 μM Aβ1-42, 8 days): does not modify
effects on Notch intracellular cleavage [2]: no effects were observed
oral absorption [3]: 50%
TNFα level in cerebrospinal fluid (TNFα): reduce TNFα level
tolerability ([4]; 60 mg/kg/day, prolonged treatment for 4-9 months): well tolerated
neuropathological and behavioral activity ([4]; oral doses of 60 mg/kg/day): active
inhibitory activity on COX-2 (COX-2): does not display inhibitory activity
expression profile of several NICD-responsive genes (NICD-responsive genes): does not alter
brain levels as % of the corresponding plasma concentrations [5]: 3-14%
pIC50 [6]: 5.44
oral absorption ([7]; oral route): 80-100%
plasma elimination t1/2 [7]: ≈ 24 hours
inhibitory activity on COX-1 (COX-1): does not display inhibitory activity
plasma elimination half-life t1/2 ([8]; after oral administration): ≈ 30 hours
brain penetration [8]: 3-9%
oral absorption ([9]; oral): 74%
plasma elimination t1/2 [9]: 12 h

CC(C)[C@H](O)C(=O)N[C@@H](C)C(=O)N[C@@H]1C(=O)N(C)CCc2ccccc21 [semagacestat]
cognition and ability to complete activities of daily living versus placebo (AD patients; interim analysis of two Phase 3 trials): worsened over time to a statistically significantly higher rate
rate of skin cancer compared to placebo (AD patients; two 21-month Phase 3 trials, more than 2,600 AD patients): increased rate of skin cancer
dendritic spine density (dendritic spine density): decrease dendritic spine density
